Measurements published in patent US20100130598A1, “METHODS FOR INDUCING PROGRAMMED CELL DEATH” (Novogen Research Pty Ltd., priority 2008, published 2010).
Converted amounts (≈) assume the structure as drawn.

Tests used:
Type in all cases: cell-based, human
EOC cells [1] = experiment: Cell viability assay (CellTiter 96 AQueous One)
Description: (§1) Cell lines and culture conditions. Established human EOC cell lines, A2780 and A2780/CP70 (gifts from Dr. T C Hamilton) (Behrens et al, 1997) were propagated in RPMI plus 10% fetal bovine serum (Gemini Bio-Products, Woodland, Calif.). Primary EOC cell lines were isolated from malignant ovarian ascites or explanted from ovarian tumors and cultured as previously described (Alvero et al, 2006). Purity of the EOC cells was 100% as determined by immuno-staining for cytokeratin 7 antigen. All cell lines were grown at 37° C. in a 5% CO2 atmosphere.
Cell viability assay. Cell viability was determined as previously reported (Alvero et al., 2006). Briefly, cells (5×10^3) were plated in triplicate wells in a […] volume per well of a 96-well microtiter plate (BD Biosciences/Pharmingen, San Diego, Calif.). The cells were grown to 70% confluence and then incubated in reduced-serum phenol-depleted Opti-MEM medium (Invitrogen-GIBCO, Carlsbad, Calif.) for 4 h prior to treatment. Compound 1 (Novogen, Inc., NSW, Australia) was added to the medium from 10 mg/ml stock to give various final concentrations as described in the results section. Following 24 h treatment, cell viability was evaluated using the CellTiter 96® AQueous One Solution Cell Proliferation Assay (Promega Corporation, Madison, Wis.) according to the manufacturer's instructions. Optical densities of the samples were measured at 490 nm using an automatic microplate reader (Model 550, Bio-Rad, Hurcules, Calif.). The values from the treated cells were compared with the values generated from the untreated control and reported as percent viability. Each experiment was done in triplicate.
For experiments using the caspase inhibitor, Z-VAD-FMK (Sigma Aldrich, St. Louis, Mo.), the inhibitor was added to the cultures 30 mins prior to treatment to yield a final concentration of 20 μM. […]

EOC cells [2] = experiment: Flow cytometry with Hoechst and Propidium iodide staining (DNA fragmentation); conditions: Compound 1 10 g/ml (as printed, FIG. 1B legend), 24 h
Description: as §1
Flow cytometry with Hoechst and Propidium iodide staining. After treatment, cells were trypsinized, washed twice with PBS, and resuspended at 1×10^6 cells/ml. Cells were then stained with 5 μg/ml Hoechst 33342 (Invitrogen-Molecular Probes, Carlsbad, Calif.) and 1 μg/ml Propidium iodide (Sigma Aldrich) and incubated for 15 mins in the dark. Afterwards, data was acquired using BD LSR II System and analyzed using FloJo FACS analysis software (Tree Star, Inc., Ashland, Oreg.).

PANC-1 cells = experiment: Mitochondrial membrane potential by FACS (JC-1), PANC-1; conditions: PANC-1, dose-dependent, 48 hrs of treatment
Description: (§2) Cells. Human pancreatic cell lines HPAC, MIAPaCa-2 and PANC-1 were obtained from the ATCC. (Manassas, Va.). The cells were maintained in DMEM media with Gln and high glucose (Mediatech, Manassas, Va.) with 10% fetal bovine serum (FBS, HyClone, Logan, Utah) and pencillin/streptomycin.
(§3) FACS Analysis. Apoptosis was measured by FACS analysis using Annexin-V-FITC and propidium iodide (PI) (Biovision, Mountain View, Calif.) as probes (Ahn et al., 2003). Mitochondrial membrane potential was measured by FACS analysis using JC-1 (Biovision) as a probe (Ahn et al., 2003). Cell cycle was analyzed on ethanol-fixed, RNaseA-treated cells staining with PI. In each spectrum, 10,000 gated events were recorded and analyzed with a FACSCalibur (BD Biosciences. San Jose, Calif.). All experiments were done in triplicate, error bars represent one standard deviation. Caspase inhibitor I (zVAD-fmk) was obtained from Calbiochem.

HPAC cells = experiment: Cell cycle analysis by FACS (PI), HPAC; conditions: 10 μM, accompanied with an arrest in G0/G1, transient
Description: as §2, §3

Structure (SMILES) | effect of autophagy inhibitor 3-MA on compound-induced cell death (EOC cells [1]; Compound 1 10 μg/ml, 3 MA (10 μM)) | GI50 (EOC cells [1]; Homo sapiens, primary EOC cultures, paclitaxel-sensitive and paclitaxel-resistant (R182, R456), 24 h, read-out: GI50 (reduction in percentage of viable cells)) [µg/mL] | impact of pan-caspase inhibitor Z-VAD-FMK on compound-induced cell death (EOC cells [1]; Z-VAD-FMK 20 μM, increasing concentrations of Compound 1, 24 h) | cells staining positively for both Hoechst and PI (fragmented DNA) (EOC cells [2]) [%] | mitochondrial depolarization (PANC-1 cells) | G2/M arrest (HPAC cells)
COc1ccc(C2c3ccc(O)c(C)c3OCC2c2ccc(O)cc2)cc1 (stereo not drawn) [Compound 1, 3-(4-hydroxyphenyl)-4-(4-methoxyphenyl)-8-methylchroman-7-ol] | not able to inhibit | 5 to 10 (≈ 13.8 to 27.6 µM) | no impact | 95 | – | –
COc1ccc(C2c3ccc(O)cc3OCC2c2ccc(O)cc2)cc1 (stereo not drawn) [Compound 10, 3-(4-hydroxyphenyl)-4-(4-methoxyphenyl)chroman-7-ol] | – | – | – | – | depolarized | less pronounced
